Data reported in patent US20130296370A1, “COMPOSITION COMPRISING A PHOTOACTIVATABLE LARVICIDE” (UNIVERSITA DEGLI STUDI DI PADOVA, priority 2010, published 2013).

Key:
[1] = Singlet oxygen quantum yield (DMA chemical quenching); format: physicochemical; conditions: DMA quenching in DMF; 400-800 nm, 100 mW/cm^2
Protocol: The potential of the C14 porphyrin as a photosensitising agent was assessed on the basis of the quantum yield (φΔ) of singlet oxygen (^1O2) generation by the photoexcited triplet state of the porphyrin, namely the number of ^1O2 molecules generated per number of absorbed light photons. In the present study φΔ was measured by following the decrease in the fluorescence emission of 9,10-dimethyl-anthracene (DMA) upon its photosensitised conversion into the corresponding non-fluorescent 9,10-endoperoxide. […] In a typical experiment, a DMA solution (1.5 ml, initial absorbance around 1 at 380 nm) and porphyrin solution (1.5 ml, initial absorbance around 0.4 at 420 nm) in N,N-dimethyl-formamide (DMF) were placed in a quartz cuvette with a 1 cm optical path and irradiated with 400-800 nm light wavelengths (Teclas lamp, 100 mW cm-2) at 20° C.±2° C. under gentle magnetic stirring for different periods of time up to 20 min. The DMA fluorescence emission was recorded in the 380-550 nm wavelength range with excitation at 360 nm. The first-order rate constant of the photoprocess was obtained by plotting In F0/F as a function of the irradiation time t, where F0 and F represent the fluorescence intensity at time 0 and time t, respectively. The slope of the linear plot thus obtained allowed the rate constant of the photoprocess to be calculated. […]

[2] = Aggregation of C14 by Beer-Lambert titration; format: physicochemical; conditions: aqueous solution; linear plot of Soret band at 424 nm
Protocol: To test the possible occurrence of aggregation processes for this porphyrin, the intensity of the Soret band was titrated as a function of the porphyrin concentration according to the Beer-Lambert law. In a first phase of our investigations, the data were calculated up to a porphyrin concentration of 0.16 mM (FIG. 1A), since the optical density of more concentrated porphyrin solutions became too large even using cuvettes of 0.1 cm optical path. […] This spectral feature is generally attributed to the presence of porphyrin oligomers (Reddi E, Ceccon M, Valduga G, Joni G, Bommer J C, et al. (2002) Photophysical properties and antibacterial activity of meso-substituted cationic porphyrins. Photochem Photobiol 75: 462-470). To test the possibility that the hydrophobicity imparted by the long alkyl chain of C14 may favour the occurrence of some aggregation as the concentration increases, the titration was extended to larger molarities calculating the absorbance values at 404 nm instead of 424 nm (FIG. 2B).

[3] = test system: Aedes aegypti larvae; test: C14 porphyrin toxicity in the dark; format: in vivo; conditions: for emerged adults (%) / emerged adults (count) / adult % survival after light exposure: 5 μM C14; for emerged adults (%) / emerged adults (count): pooled data; for adult % survival after light exposure: 12 h-long irradiation 1.0-4.0 mW/cm^2
Protocol: (§1) All the experiments were carried out in a climatic chamber at 28±2° C. with a regulated photoperiod of 12 hours. Transparent plastic trays, containing 500 ml C14 solutions or spring water were employed. Typically, 5±1 days old, 3rd-early 4th instar Aedes aegypti larvae were used. All the experiments were replicated three times.
At the end of the incubation period, dead and living larvae were counted in each tray. Larvae were then washed with tap water, and transferred to new trays containing spring water and PFP. Trays were kept in the dark until adults emerged. Adults were counted and exposed to light (intensity 1.0-4.0 mW/cm^2) for 12 hours, and their mortality was evaluated at the end of the irradiation period.

[4] = test system: Aedes aegypti 3rd-4th instar larvae; test: Efficacy and residual activity of photolarvicidal formulations; format: in vivo; conditions: for % mortality by incubation time: 12 h irradiation
Protocol: To assess the effect of different C14 loading concentrations on the photolarvicidal activity of the C14-PFP complexes, two photolarvicidal formulates were prepared. The formulates, named C14 PF-5 and C14 PF-50, were obtained by incubating overnight at room temperature under gentle shaking 25 mg of PFP in 500 ml of 5 μM and 50 μM aqueous solutions of C14, respectively. The solutions were filtered using Whatman qualitative filter papers (Whatman International Ltd., UK) and the solid residues, consisting in the C14-PFP complexes, were washed with 10 ml distilled water, oven-dried at 37° C. for 4 hours and stored at room temperature until use. To quantify the amount of bound C14, samples of the two C14-PFP formulates were dissolved in 3 ml of 2% SDS for 2 h under gentle magnetic stirring. The extracted porphyrin was then quantified by spectrophotometric analysis as described above.
as §1
Five series of trays were prepared, namely 0.3 μM and 5 μM C14 porphyrin solutions containing 6 mg PFP (wherein PFP means powdered food pellet (PFP) with final particle diameter of 5-500 μm diameter obtained by crushing a standard food pellet for laboratory rodents, namely 4RF18 GLP (Mucedola Srl, Italy) using an electric blender and then sieving at mesh diameter 500 μm); spring water containing 6 mg C14 PF-5 or C14 PF-50 formulate (wherein C14 PF-5 and C14 PF-50, were obtained by incubating overnight at room temperature under gentle shaking 25 mg of PFP in 500 ml of 5 μM and 50 μM aqueous solutions of C14, respectively) and spring water containing 6 mg PFP as a control. Each series was arranged into three groups, which were incubated at a 12 hour photoperiod for 48 hours, one, or two weeks, respectively. At the end of the incubation periods, batches of 100 larvae, having fasted for 24 hours, were introduced into the trays, at 8 pm (beginning of the 12 h-long dark period in the climatic chamber). Larval mortality was evaluated after 12 hours (next day at 8.00 pm) of irradiation.

In the case of `CCCCCCCCCCCCCC[n+]1ccc(-c2c3nc(c(-c4cc[n+](C)cc4)c4ccc([nH]4)c(-c4cc[n+](C)cc4)c4nc(c(-c5cc[n+](C)cc5)c5ccc2[nH]5)C=C4)C=C3)cc1.Cc1ccc(S(=O)(=O)[O-])cc1.Cc1ccc(S(=O)(=O)[O-])cc1.Cc1ccc(S(=O)(=O)[O-])cc1.Cc1ccc(S(=O)(=O)[O-])cc1` [C14, meso-tri(N-methyl-pyridyl), mono(N-tetradecyl-pyridyl)porphine], the “quantum yield of ^1O2 photogeneration” value [1] was 0.46, the “concentration up to which a purely monomeric state is indicated” value [2] was “up to 0.16 mM” and the “emerged adults (%)” value ([3]; dark incubation 3 hours) was “(97.9) %”. For the same compound, the “emerged adults (count)” value ([3]; dark incubation 3 hours) was 138/141, the “emerged adults (%)” value ([3]; dark incubation 8 hours) was “(100) %” and the “emerged adults (count)” value ([3]; dark incubation 8 hours) was 128/128. The “emerged adults (%)” value ([3]; dark incubation 24 hours) was “(97.9) %”, the “emerged adults (count)” value ([3]; dark incubation 24 hours) was 138/141 and the “adult % survival after light exposure” value ([3]; larval dark incubation 3 hours) was 100%. For the same compound, the “adult % survival after light exposure” value ([3]; larval dark incubation 8 hours) was 100%, the “adult % survival after light exposure” value ([3]; larval dark incubation 24 hours) was 100% and the “larval mortality in the dark” value ([3]; 5 μM C14 solution, irrespectively of the duration of incubation) was “No mortality”. The “% mortality by incubation time” value ([4]; 0.3 μM C14 solution with 6 mg untreated larval food, trays incubated 1 week) was 100%, the “% mortality by incubation time” value ([4]; 0.3 μM C14 solution with 6 mg untreated larval food, trays incubated 2 weeks) was 0% and the “% mortality by incubation time” value ([4]; 0.3 μM C14 solution with 6 mg untreated larval food, trays incubated 48 hours) was 100%. For the same compound, the residual activity ([4]; 0.3 μM solutions in water containing 6 mg untreated PFP) was 1 week, the “% mortality by incubation time” value ([4]; 5 μM C14 solution with 6 mg untreated larval food, trays incubated 1 week) was 100% and the “% mortality by incubation time” value ([4]; 5 μM C14 solution with 6 mg untreated larval food, trays incubated 2 weeks) was 100%. The “% mortality by incubation time” value ([4]; 5 μM C14 solution with 6 mg untreated larval food, trays incubated 48 hours) was 100% and the residual activity ([4]; 5 μM solutions in water containing 6 mg untreated PFP) was “two weeks”.
